Measured values published in patent publication US20170210723A1, “MOLECULES HAVING PESTICIDAL UTILITY, AND INTERMEDIATES, COMPOSITIONS, AND PROCESSES, RELATED THERETO” (priority 2016, published 2017).

Experiments:
Format in all cases: in vivo
[1] = system: Beet Armyworm (Spodoptera exigua); assay: Bioassays on BAW, 128-well diet tray assay; details: Spodoptera exigua, 168 h; 50 μg/cm^2 on artificial diet, second instar larvae, five to seven days; read-out: BAW % Control (or Mortality) rating
[2] = system: Cabbage Looper (Trichoplusia ni); assay: Bioassays on CL, 128-well diet tray assay; details: Trichoplusia ni, 168 h; 50 μg/cm^2 on artificial diet, second instar larvae, five to seven days; read-out: CL % Control (or Mortality) rating
Outline: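 Second-instar larvae (1–5 per well) were fed diet surface-treated with 50 μg/cm^2 compound, eight wells each. After five to seven days at 25° C. under a 14:10 photoperiod, mortality was scored per well and the eight wells averaged.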

[3] = system: Yellow Fever Mosquito (Aedes aegypti); assay: Bioassays on Yellow Fever Mosquito larvae, 96-well plate; details: from 4000 ppm DMSO master plate, about 1 day-old larvae, 3 days
Procedure: Master plates containing 400 μg of a molecule dissolved in 100 μL of dimethyl sulfoxide (DMSO) (equivalent to a 4000 ppm solution) are used. A master plate of assembled molecules contains 15 μL per well. To this plate, 135 μL of a 90:10 water:acetone mixture is added to each well. A robot (Biomek® NXP Laboratory Automation Workstation) is programmed to dispense 15 μL aspirations from the master plate into an empty 96-well shallow plate (“daughter” plate). There are 6 reps (“daughter” plates) created per master. The created daughter plates are then immediately infested with YFM larvae.
The day before plates are to be treated, mosquito eggs are placed in Millipore water containing liver powder to begin hatching (4 g. into 400 mL). After the daughter plates are created using the robot, they are infested with 220 μL of the liver powder/larval mosquito mixture (about 1 day-old larvae). After plates are infested with mosquito larvae, a non-evaporative lid is used to cover the plate to reduce drying. Plates are held at room temperature for 3 days prior to grading. After 3 days, each well is observed and scored based on mortality. The results are indicated in the table entitled “Table ABC: Biological Results” (See Table Section). AGRICULTURALLY ACCEPTABLE ACID ADDITION SALTS, SALT DERIVATIVES, SOLVATES, ESTER DERIVATIVES, POLYMORPHS, ISOTOPES, AND RADIONUCLIDES

For `C[C@H](C[S+]([O-])CC(F)(F)F)NC(=O)c1ccc(/C=C/C(c2cc(Br)c(Cl)c(Br)c2)C(F)(F)F)cc1C(F)(F)F` (stereo partly drawn) [F42, 4-((E)-3-(3,5-Dibromo-4-chlorophenyl)-4,4,4-trifluorobut-1-en-1-yl)-N-((2R)-1-((2,2,2-trifluoroethyl)sulfinyl)propan-2-yl)-2-(trifluoromethyl)benzamide], the mortality at 50 µg/cm2 [1] was 50 to 100%, the mortality at 50 µg/cm2 [2] was 50 to 100% and the “YFM % Control (or Mortality) rating” value [3] was “A (80-100)”.
With `CC(C)(CSCC(F)(F)F)NC(=O)c1ccc(/C=C/C(c2cc(Cl)c(Cl)c(Cl)c2)C(F)(F)F)cc1C(F)(F)F` (stereo not drawn) [F44, (E)-N-(2-methyl-1-((2,2,2-trifluoroethyl)thio)propan-2-yl)-4-(4,4,4-trifluoro-3-(3,4,5-trichlorophenyl)but-1-en-1-yl)-2-(trifluoromethyl)benzamide] the mortality at 50 µg/cm2 [1] was 50 to 100%, the mortality at 50 µg/cm2 [2] was 50 to 100% and the “YFM % Control (or Mortality) rating” value [3] was “A (80-100)”.
With `C[C@H](CS(=O)(=O)NCC(F)(F)F)NC(=O)c1ccc(/C=C/C(c2cc(Cl)c(Cl)c(Cl)c2)C(F)(F)F)cc1C(F)(F)F` (stereo partly drawn) [F45, 4-((E)-4,4,4-Trifluoro-3-(3,4,5-trichorophenyl)but-1-en-1-yl)-N—((R)-1-(N-(2,2,2-trifluoroethyl)sulfamoyl)propan-2-yl)-2-(trifluoromethyl)benzamide] the mortality at 50 µg/cm2 [1] was 50 to 100%, the mortality at 50 µg/cm2 [2] was 50 to 100% and the “YFM % Control (or Mortality) rating” value [3] was “A (80-100)”.
In the case of `Cc1cc(/C=C/C(c2cc(Cl)c(Cl)c(Cl)c2)C(F)(F)F)ccc1C(=O)N[C@H](C)C[S+]([O-])CC(F)(F)F` (stereo partly drawn) [F46, 2-Methyl-4-((E)-4,4,4-trifluoro-3-(3,4,5-trichlorophenyl)but-1-en-1-yl)-N-((2R)-1-((2,2,2-trifluoroethyl)sulfinyl)propan-2-yl)benzamide], the mortality at 50 µg/cm2 [1] is reported as 50 to 100%, the mortality at 50 µg/cm2 [2] is reported as 50 to 100% and the “YFM % Control (or Mortality) rating” value [3] is reported as “A (80-100)”.
`CC(C)(CS(=O)(=O)CC(F)(F)F)NC(=O)c1ccc(/C=C/C(c2cc(Cl)c(Cl)c(Cl)c2)C(F)(F)F)cc1C(F)(F)F` (stereo not drawn) [F48, (E)-N-(2-Methyl-1-((2,2,2-trifluoroethyl)sulfonyl)propan-2-yl)-4-(4,4,4-trifluoro-3-(3,4,5-trichlorophenyl)but-1-en-1-yl)-2-(trifluoromethyl)benzamide] was tested, and the mortality at 50 µg/cm2 [1] was 50 to 100%, the mortality at 50 µg/cm2 [2] was 50 to 100% and the “YFM % Control (or Mortality) rating” value [3] was “A (80-100)”.
For `C[C@H](C[S+]([O-])CC(F)(F)F)NC(=O)c1ccc(/C=C/C(c2cc(Cl)c(Cl)c(Cl)c2)C(F)(F)F)cc1Cl` (stereo partly drawn) [F50, 2-Chloro-4-((E)-4,4,4-trifluoro-3-(3,4,5-trichlorophenyl)but-1-en-1-yl)-N-((2R)-1-((2,2,2-trifluoroethyl)sulfinyl)propan-2-yl)benzamide], the mortality at 50 µg/cm2 [1] was 50 to 100%, the mortality at 50 µg/cm2 [2] was 50 to 100% and the “YFM % Control (or Mortality) rating” value [3] was “A (80-100)”.
With `Cc1cc(/C=C/C(c2cc(Cl)c(Cl)c(Cl)c2)C(F)(F)F)ccc1C(=O)N[C@H](C)CSCC(F)(F)F` (stereo partly drawn) [F51, 2-Methyl-4-((E)-4,4,4-trifluoro-3-(3,4,5-trichlorophenyl)but-1-en-1-yl)-N—((R)-1-((2,2,2-trifluoroethyl)thio)propan-2-yl)benzamide] the mortality at 50 µg/cm2 [1] was 50 to 100%, the mortality at 50 µg/cm2 [2] was 50 to 100% and the “YFM % Control (or Mortality) rating” value [3] was “A (80-100)”.
For `C[C@H](CS(=O)(=O)CC(F)(F)F)NC(=O)c1ccc(/C=C/C(c2cc(Cl)c(F)c(Cl)c2)C(F)(F)F)cc1Br` (stereo partly drawn) [F52, 2-Bromo-4-((E)-3-(3,5-dichloro-4-fluorophenyl)-4,4,4-trifluorobut-1-en-1-yl)-N—((R)-1-((2,2,2-trifluoroethyl)sulfonyl)propan-2-yl)benzamide], the mortality at 50 µg/cm2 [1] was 50 to 100%, the mortality at 50 µg/cm2 [2] was 50 to 100% and the “YFM % Control (or Mortality) rating” value [3] was “A (80-100)”.
